Tests used:
HCT116 cells = assay: Inhibition of cancer cell proliferation (MTT, GIC50); format: cell-based; conditions: Homo sapiens, HCT-116, 48 h incubation
Description: HCT116 cells derived from human colorectal cancer were used, and a cancer cell proliferation inhibition effect of a biguanide derivative was confirmed by measuring a concentration value (cell growth inhibition concentration, GIC50) at which cell growth was inhibited 50% using a 3-(4,5-dimethylthiazol-2-yl)-2,5-diphenyltetrazolium bromide (MTT) reagent.
First, the HCT116 cells were put on a 96-well plate and incubated for 24 hours to each have cell count of approximately 5000 in a DMEM medium containing 10% fetal bovine serum. Subsequently, to obtain the GIC50 value of each compound, 100 μM (or 200 μM), 25 μM, 6.25 μM, 1.56 μM or 0.39 μM of the compound was treated to each culture medium and then incubated for 48 hours. To confirm living cells after treatment with the compound, MTT was added to each culture medium and further incubated for 3 hours. Generated formazane crystal was dissolved using dimethyl sulfoxide (DMSO), and absorbance of the solution was measured at 560 nm. After the 48-hour incubation, a ratio of […] synthesized in the examples was indicated as cell viability (%) according to each administered concentration. A cell viability curve was plotted using the cell viability (%) and the calculated concentration value (GIC50) of the compound, at which 50% of the growth was inhibited, to confirm an effect on the inhibition of cancer cell proliferation.

AMPK = AMPK activation (AMPKα immunoassay kit, phospho-Thr172) in MCF7 cells; format: cell-based, human; design: AMPK Activation 50 uM (degree of phosphorylated AMPKα Thr172): unit not given here; conditions: 24 h; for AMPK Activation Fold: 50 uM compound vs 0 (no compound); for AMPK Activation 50 uM (degree of phosphorylated AMPKα Thr172): 50 uM compound
Description: The MCF7 cells were put on a 6-well plate and incubated in a DMEM medium containing 10% fetal bovine serum in an incubator to which 5% CO2 was supplied to have a cell count of approximately 5×10^5. 50 μM of the derivatives synthesized in the examples were treated to the each culture medium, and the cells were incubated for 24 hours. Subsequently, the cells were lysed by a method presented in the operation manual of the AMPKα immunoassay kit, and 20 μg of cell lysates were yielded through protein assay.

Row | Compound | IC50 (HCT116 cells) [µM] | AMPK Activation Fold (AMPK) | AMPK Activation 50 uM (degree of phosphorylated AMPKα Thr172) (AMPK) | melting point [°C]
1 | CCCCN/C(=N\C1CCCC1)NC(=N)N.Cl [Example 14, N4-cyclopentyl-N5-butyl biguanide hydrochloride] | > 100 | 3.4 | 23.2 | 190 to 191
2 | CCCCN/C(=N\C12CC3CC(CC(C3)C1)C2)NC(=N)N.Cl [Example 16, N4-adamantyl-N5-butyl biguanide hydrochloride] | 34.7 | 6.7 | 35.3 | 193 to 194
3 | CCCCN/C(=N\c1ccc(Br)cc1)NC(=N)N.Cl [Example 17, N4-(4-bromo)phenyl-N5-butyl biguanide hydrochloride] | 126 | 3.9 | 26.3 | 195 to 196
4 | CCCCN/C(=N\Cc1ccccc1Cl)NC(=N)N.Cl [Example 19, N4-(2-chloro)benzyl-N5-butyl biguanide hydrochloride] | > 100 | 2.8 | 19.1 | 147 to 148
5 | CCCCN/C(=N\CCc1cccs1)NC(=N)N.Cl [Example 24, N4-(thiophene-2-yl)ethyl-N5-butyl biguanide hydrochloride] | > 100 | 4.4 | 29.9 | 131 to 133
6 | Cl.N=C(N)N/C(=N/Cc1cccnc1)NC1CCCCC1 [Example 26, N4-(pyridine-3-yl)methyl-N5-cyclohexyl biguanide hydrochloride] | > 100 | 2.3 | 15.4 | 265 to 266
7 | Cl.N=C(N)N/C(=N/CCc1ccccc1)NC1CCCCC1 [Example 27, N4-(phenethyl)-N5-cyclohexyl biguanide hydrochloride] | > 100 | 2.7 | 18.7 | 183 to 184
8 | Cl.N=C(N)N/C(=N/Cc1cccnc1)Nc1ccccc1 [Example 28, N4-(pyridine-3-yl)methyl-N5-phenyl biguanide hydrochloride] | > 100 | 1.0 | 6.7 | 189 to 190
9 | Cl.N=C(N)N/C(=N/C1CCCC1)NCc1ccccc1 [Example 30, N4-cyclopentyl-N5-benzyl biguanide hydrochloride] | > 200 | 1.4 | 7.3 | 166 to 167
10 | Cl.N=C(N)N/C(=N/Cc1ccco1)NCc1ccccc1 [Example 32, N4-(furan-2-yl)methyl-N5-benzyl biguanide hydrochloride] | > 100 | 2.5 | 16.9 | 116 to 117
11 | Cl.N=C(N)N/C(=N/C12CC3CC(CC(C3)C1)C2)NCCc1ccccc1 [Example 34, N4-adamantyl-N5-(phenethyl)biguanide hydrochloride] | 18.7 | 8.3 | 20.8 | 251 to 252
12 | Cl.N=C(N)N/C(=N/c1ccc(C(F)(F)F)cc1)NCCc1ccccc1 [Example 37, N4-(4-trifluoromethyl)phenyl-N5-(phenethyl)biguanide hydrochloride] | 12.4 | 4.1 | 10.2 | 150 to 151
13 | Cl.N=C(N)N/C(=N/Cc1ccc2c(c1)OCO2)NCCc1ccccc1 [Example 39, N4-(benzo[1,3]dioxol-5-yl)methyl-N5-(phenethyl)biguanide hydrochloride] | > 100 | 0.9 | 6.4 | 168 to 169
14 | Cl.N=C(N)N/C(=N/Cc1ccccc1)NCCc1ccccc1 [Example 40, N4-benzyl-N5-(phenethyl)biguanide hydrochloride] | 85.6 | 3.9 | 20.5 | 165 to 166
15 | Cl.N=C(N)N/C(=N/Cc1ccc(F)cc1)NCCc1ccccc1 [Example 41, N4-(4-fluoro)benzyl-N5-(phenethyl)biguanide hydrochloride] | 42.8 | 4.0 | 10.1 | 125 to 127
16 | Cl.N=C(N)N/C(=N/CCc1cccs1)NCCc1ccccc1 [Example 42, N4-(thiophene-2-yl)ethyl-N5-(phenethyl)biguanide hydrochloride] | 76 | 5.9 | 31.5 | 183 to 185
17 | Cl.N=C(N)N/C(=N/CCc1ccccc1)NCCc1ccccc1 [Example 43, N4-N5-di(phenethyl)biguanide hydrochloride] | 70.2 | 4.5 | 23.8 | 183 to 184
18 | C/N=C(/NC(=N)N)N(C)Cc1ccccc1.Cl [Example 44, N4-methyl-N5,N5-(benzyl)(methyl)biguanide hydrochloride] | > 100 | 1.9 | 12.8 | 120 to 122
19 | CCCC/N=C(/NC(=N)N)N(Cc1ccccc1)C(C)C.Cl [Example 45, N4-butyl-N5,N5-(benzyl)(isopropyl)biguanide hydrochloride] | > 100 | 1.0 | 7.1 | 170 to 171
20 | CN(CCc1ccccc1)/C(=N\CCc1ccccc1)NC(=N)N.Cl [Example 47, N4-(phenethyl)-N5,N5-(phenethyl)(methyl)biguanide hydrochloride] | > 100 | 1.1 | 7.2 | 144 to 145
21 | CCCCN(CC)/C(=N\CCc1ccccc1)NC(=N)N.Cl [Example 48, N4-(phenethyl)-N5,N5-(butyl)(ethyl)biguanide hydrochloride] | > 100 | 1.0 | 6.6 | 228 to 229
22 | CCCCCCN(CCCCCC)/C(=N\CCc1ccccc1)NC(=N)N.Cl [Example 49, N4-(phenethyl)-N5,N5-dihexyl biguanide hydrochloride] | > 100 | 5.2 | 35.2 | 138 to 140
23 | CCCCN(Cc1ccccc1)/C(=N\CCc1ccccc1)NC(=N)N.Cl [Example 50, N4-(phenethyl)-N5,N5-(butyl)(benzyl)biguanide hydrochloride] | 59.1 | 4.0 | 21.4 | 184 to 185

Reference: patent publication US9464042B2, “Biguanide derivative, preparation method thereof, and pharmaceutical composition containing same as an active ingredient” (IMMUNOMET THERAPEUTICS INC., priority 2010, dated 2016)
